Test results as given in patent US10077265B2, “Substituted oxopyridine derivatives” (BAYER PHARMA AKTIENGESELLSCHAFT, priority 2014, dated 2018).

target: human plasma kallikrein (Homo sapiens (Human), UniProt P03952); assay: Determination of the plasma kallikrein activity (fluorogenic peptide substrate); assay type: biochemical; conditions: plasma kallikrein from Kordia, substrate H-Pro-Phe-Arg-AMC, 30 min at 22° C.
Experimental: To determine the plasma kallikrein inhibition of the substances according to the invention, a biochemical test system is used which utilizes the reaction of a peptidic plasma kallikrein substrate to determine the enzymatic activity of human plasma kallikrein. Here, plasma kallikrein cleaves from the peptic plasma kallikrein substrate the C-terminal aminomethylcoumarin (AMC), the fluorescence of which is measured. The determinations are carried out in microtitre plates.
1 μl of the diluted substance solutions is placed into each of the wells of white microtitre plates from Greiner (384 wells). 20 μl of assay buffer (50 mM Tris/HCl pH 7.4; 100 mM sodium chloride solution; 5 mM of calcium chloride solution; 0.1% of bovine serum albumin) and 20 μl of plasma kallikrein from Kordia (0.6 nM in assay buffer) are then added successively. After 15 min of incubation, the enzyme reaction is started by addition of 20 μl of the substrate H-Pro-Phe-Arg-AMC dissolved in assay buffer (10 μM in assay buffer) from Bachem, the mixture is incubated at room temperature (22° C.) for 30 min and fluorescence is then measured (excitation: 360 nm, emission: 460 nm). The measured emissions of the test batches with test substance are compared to those of control batches without test substance (only dimethyl sulphoxide instead of test substance in dimethyl sulphoxide), and IC50 values are calculated from the concentration/activity relationships.

Sequence of human plasma kallikrein (P03952 391-638): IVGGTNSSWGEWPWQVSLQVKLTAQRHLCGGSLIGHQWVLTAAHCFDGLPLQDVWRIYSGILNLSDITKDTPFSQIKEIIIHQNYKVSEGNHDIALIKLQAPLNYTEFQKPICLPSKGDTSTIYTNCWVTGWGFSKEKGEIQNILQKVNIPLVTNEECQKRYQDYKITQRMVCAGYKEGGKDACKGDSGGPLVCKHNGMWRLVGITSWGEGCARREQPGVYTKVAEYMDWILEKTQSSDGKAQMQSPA
Sequence of human plasma kallikrein (P03952 20-390 partner): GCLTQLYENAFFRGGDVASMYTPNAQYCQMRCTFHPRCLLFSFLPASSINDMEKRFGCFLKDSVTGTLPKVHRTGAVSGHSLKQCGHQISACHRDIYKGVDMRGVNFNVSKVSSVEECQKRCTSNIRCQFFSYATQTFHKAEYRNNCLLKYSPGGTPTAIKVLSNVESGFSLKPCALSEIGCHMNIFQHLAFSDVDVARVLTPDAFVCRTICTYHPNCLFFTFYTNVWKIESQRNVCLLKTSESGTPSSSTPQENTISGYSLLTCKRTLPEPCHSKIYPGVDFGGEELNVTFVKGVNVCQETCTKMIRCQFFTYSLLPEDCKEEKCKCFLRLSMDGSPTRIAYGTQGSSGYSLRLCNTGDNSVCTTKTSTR

Structure (SMILES)	IC50
COCCC(C(=O)Nc1ccn2ncc(C(=O)O)c2c1)n1cc(OC)c(-c2cc(Cl)ccc2C#N)cc1=O (racemic) [Example 2, 5-({2-[4-(5-Chloro-2-cyanophenyl)-5-methoxy-2-oxopyridin-1(2H)-yl]-4-methoxybutanoyl}-amino)pyrazolo[1,5-a]pyridine-3-carboxylic acid (racemate)]	2.5 nM
COCCNC(=O)c1cnn2ccc(NC(=O)C(CCOC)n3cc(OC)c(-c4cc(Cl)ccc4C#N)cc3=O)cc12 (racemic) [Example 8, 5-({2-[4-(5-Chloro-2-cyanophenyl)-5-methoxy-2-oxopyridin-1(2H)-yl]-4-methoxybutanoyl}amino)-N-(2-methoxyethyl)pyrazolo[1,5-a]pyridine-3-carboxamide (racemate)]	3.8 nM
COCCC(C(=O)Nc1ccn2ncc(C(=O)N(C)C)c2c1)n1cc(OC)c(-c2cc(Cl)ccc2C#N)cc1=O (racemic) [Example 6, 5-({2-[4-(5-Chloro-2-cyanophenyl)-5-methoxy-2-oxopyridin-1(2H)-yl]-4-methoxybutanoyl}amino)-N,N-dimethylpyrazolo[1,5-a]pyridine-3-carboxamide (racemate)]	18 nM
COCCCNC(=O)c1cnn2ccc(NC(=O)C(CCOC)n3cc(OC)c(-c4cc(Cl)ccc4C#N)cc3=O)cc12 (racemic) [Example 9, 5-({2-[4-(5-Chloro-2-cyanophenyl)-5-methoxy-2-oxopyridin-1(2H)-yl]-4-methoxybutanoyl}amino)-N-(3-methoxypropyl)pyrazolo[1,5-a]pyridine-3-carboxamide (racemate)]	3 nM
COCCC(C(=O)Nc1ccn2ncc(C(=O)NCCCO)c2c1)n1cc(OC)c(-c2cc(Cl)ccc2C#N)cc1=O (racemic) [Example 13, 5-({2-[4-(5-Chloro-2-cyanophenyl)-5-methoxy-2-oxopyridin-1(2H)-yl]-4-methoxybutanoyl}amino)-N-(3-hydroxypropyl)pyrazolo[1,5-a]pyridine-3-carboxamide (racemate)]	5.2 nM
CCC(C(=O)Nc1ccn2ncc(C(=O)O)c2c1)n1cc(OC)c(-c2cc(Cl)ccc2C#N)cc1=O (racemic) [Example 1, 5-({2-[4-(5-Chloro-2-cyanophenyl)-5-methoxy-2-oxopyridin-1(2H)-yl]butanoyl}amino)pyrazolo-[1,5-a]pyridine-3-carboxylic acid (racemate)]	5 nM
COCCC(C(=O)Nc1ccn2ncc(C(=O)NCC(F)(F)F)c2c1)n1cc(OC)c(-c2cc(Cl)ccc2C#N)cc1=O (racemic) [Example 12, 5-({2-[4-(5-Chloro-2-cyanophenyl)-5-methoxy-2-oxopyridin-1(2H)-yl]-4-methoxybutanoyl}amino)-N-(2,2,2-trifluoroethyl)pyrazolo[1,5-a]pyridine-3-carboxamide (racemate)]	5 nM
COCCC(C(=O)Nc1ccn2ncc(C(=O)NCCC(F)(F)F)c2c1)n1cc(OC)c(-c2cc(Cl)ccc2C#N)cc1=O (racemic) [Example 11, 5-({2-[4-(5-Chloro-2-cyanophenyl)-5-methoxy-2-oxopyridin-1(2H)-yl]-4-methoxybutanoyl}amino)-N-(3,3,3-trifluoropropyl)pyrazolo[1,5-a]pyridine-3-carboxamide (racemate)]	6.6 nM
COCCC(C(=O)Nc1ccn2ncc(C(=O)NCCOC(F)(F)F)c2c1)n1cc(OC)c(-c2cc(Cl)ccc2C#N)cc1=O (racemic) [Example 10, 5-({2-[4-(5-Chloro-2-cyanophenyl)-5-methoxy-2-oxopyridin-1(2H)-yl]-4-methoxybutanoyl}amino)-N-[2-(trifluoromethoxy)ethyl]pyrazolo[1,5-a]pyridine-3-carboxamide (racemate)]	9.5 nM
COCCC(C(=O)Nc1ccn2ncc(C(=O)NCCO)c2c1)n1cc(OC)c(-c2cc(Cl)ccc2C#N)cc1=O (racemic) [Example 14, 5-({2-[4-(5-Chloro-2-cyanophenyl)-5-methoxy-2-oxopyridin-1(2H)-yl]-4-methoxybutanoyl}amino)-N-(2-hydroxyethyl)pyrazolo[1,5-a]pyridine-3-carboxamide (racemate)]	3.8 nM
CCCNC(=O)c1cnn2ccc(NC(=O)C(CCOC)n3cc(OC)c(-c4cc(Cl)ccc4C#N)cc3=O)cc12 (racemic) [Example 7, 5-({2-[4-(5-Chloro-2-cyanophenyl)-5-methoxy-2-oxopyridin-1(2H)-yl]-4-methoxybutanoyl}amino)-N-propylpyrazolo[1,5-a]pyridine-3-carboxamide (racemate)]	6.4 nM
